Tested on: monosodium urate (MSU) crystal-induced air pouch inflammation
Experiment: Air Pouch Model 4: MSU crystal air pouch, rodent model of gout
Format: in vivo, male Sprague-Dawley rats
Conditions: 30 min before MSU; for Average Exudate Volume, Mean / Average Plasma Extravasation, OD620 nm, Mean / Total WBC in Sample, Mean / WBC in exudate, Mean: 4 h after MSU
Method: The objective of this study was to evaluate the anti-inflammatory potency of Tranilast. This evaluation was carried out in male Sprague-Dawley rats in a rodent model of gout. The animals were injected subcutaneously with 20 ml of sterile air, followed three days later by a supplemental injection with 20 ml of sterile air. Six days after the initial sterile air injection, the rats were injected intravenously with Evan's Blue and pretreated for thirty minutes with oral administration of 3 mg/kg, 10 mg/kg, 30 mg/kg, 100 mg/kg, or 300 mg/kg tranilast. After the pretreatment period, the rats were injected with 150 mg of monosodium urate (MSU) crystals (10 mg/ml) into the air pouch. Four hours later, the air pouch was injected with 5 ml heparinized saline and the entire contents of the air pouch removed, recording the total volume. The air pouch contents were evaluated for plasma extravasation and total white blood cell (WBC) count.
(§1) On day 0 the rats were anesthetized in a biological cabinet, the nape of the neck was cleansed with 70% isopropanol followed by iodine tincture (VEDCO). Twenty ml sterile (0.22 μm, Millipore, Cat. SLGSV255F) air was injected subcutaneously using a 23 G×2 inch needle fixed to a 20 ml syringe. The rats were returned to routine housing. No adverse reactions were observed.
as §1, with “day 3” for “day 0”, “μm, Fisher Scientific,” for “μm, Millipore,”, “Cat. 09-720-3)” for “Cat. SLGSV255F)”
On day 6 the rats were weighed (Mettler, Model PE3000, SN: F69474) and injected intravenously injected with 2 ml/kg Evans Blue. The animals were dosed orally with 0.06 ml/kg, 0.2 ml/kg, 0.6 ml/kg, 2 ml/kg, or 6 ml/kg tranilast or 6 ml/kg vehicle.
Thirty minutes after test material administration, the rats were anesthetized and six groups (2-7) were injected into the air pouch with 15 ml MSU using a 19 G×2 inch needle fitted to a 20 ml syringe. Group 1 was injected with 15 ml saline. The rats were returned to their cages, no adverse affects were observed.
Four hours after MSU/saline injection, the rats were anesthetized and 5 ml 10 U/ml heparinized saline was injected into the air pouch. The air pouch was gently massaged, the contents immediately removed using a 14 G×1 inch needle fitted to a 6 ml syringe, and the exudate volume recorded. An aliquot of the exudate was transferred to heparin-treated microtainer tubes (Becton Dickinson, Cat. 365958) for white blood cell (WBC) counting. The remainder of the exudate was centrifuged (Hermle Labrotechnik, Model Z200A, SN: 44060036), the supernatants removed and evaluated at OD620nm (Spectronic Unicam, Model 4000 1/4, SN: 3SGD003006) for plasma extravasation.

With `COc1ccc(/C=C/C(=O)Nc2ccccc2C(=O)O)cc1OC` [Tranilast, 2-[[3-(3,4-dimethoxyphenyl)-1-oxo-2-propenyl]amino]benzoic acid] the “Average Exudate Volume, Mean” value (3 mg/kg oral) was 9.6 mL, the “Average Plasma Extravasation, OD620 nm, Mean” value (from here on “Average Plasma Extravasation”) (3 mg/kg oral) was 1.940 and the “Total WBC in Sample, Mean” value (3 mg/kg oral) was 368228000. The “WBC in exudate, Mean” value (3 mg/kg oral) was 38510000 cells/ml, the “Average Exudate Volume, Mean” value (10 mg/kg oral) was 7.7 mL and the “Average Plasma Extravasation” value (10 mg/kg oral) was 1.662. The “Total WBC in Sample, Mean” value (10 mg/kg oral) was 471436000, the “WBC in exudate, Mean” value (10 mg/kg oral) was 61200000 cells/ml and the “Average Exudate Volume, Mean” value (30 mg/kg oral) was 7.1 mL. For the same compound, the “Average Plasma Extravasation” value (30 mg/kg oral) was 1.089, the “Total WBC in Sample, Mean” value (30 mg/kg oral) was 286935000 and the “WBC in exudate, Mean” value (30 mg/kg oral) was 39650000 cells/ml. For the same compound, the “Average Exudate Volume, Mean” value (100 mg/kg oral) was 5.1 mL, the “Average Plasma Extravasation” value (100 mg/kg oral) was 1.180 and the “Total WBC in Sample, Mean” value (100 mg/kg oral) was 159916000. For the same compound, the “WBC in exudate, Mean” value (100 mg/kg oral) was 31740000 cells/ml, the “Average Exudate Volume, Mean” value (300 mg/kg oral) was 3.9 mL and the “Average Plasma Extravasation” value (300 mg/kg oral) was 0.613. The “Total WBC in Sample, Mean” value (300 mg/kg oral) was 77451111, the “WBC in exudate, Mean” value (300 mg/kg oral) was 19466667 cells/ml and the “inhibition of plasma extravasation” value (highest dose 300 mg/kg oral) was 67%. The “inhibition of white blood cell infiltration” value (highest dose 300 mg/kg oral) was 80% and the “effect on MSU-induced parameters (plasma extravasation, leukocyte infiltration)” value (oral 3-300 mg/kg) was “dose-dependent inhibition”.

— patent US20100160351A1, “PHARMACEUTICAL COMPOSITIONS AND METHODS FOR TREATING HYPERURICEMIA AND RELATED DISORDERS” (NUON THERAPEUTICS, INC., priority 2008, published 2010)
